In patent US9271978B2 (Zenith Epigenetics Corp., priority 2012, dated 2016):

Key:
[1] = target: T1, Brd4 bromodomain 1 (BRD4(1)) (Homo sapiens, UniProt O60885); assay: Inhibition of tetra-acetylated histone H4 binding to Brd4 bromodomain 1 (TR-FRET); set-up: key: Active: Compounds with an IC50 value less than 30 μM were deemed to be active.; Not Active: Compounds with an IC50 value less than 30 μM were deemed to be active; conditions: tetra-acetylated histone H4 peptide, active = IC50 <30 μM
T1 construct: Illustrative results with the first bromodomain of Brd4; made in house; host or cells: E. coli BL21 (DE3)
Summary of the method: (§1)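 IC50 values come from dose-response curves of the 665 nm to 620 nm TR-FRET signal decrease, measured after 2 h at room temperature. Reactions contained 200 nM E. coli-expressed His-tagged bromodomain, 25-50 nM biotinylated tetra-acetylated H4 peptide, Eu-streptavidin plus XL665 anti-His antibody, with 30 mM HEPES pH 7.4, 320 mM KF and 0.2% DMSO.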

[2] = target: T2, second bromodomain of Brd2 (BRD2(2)) (Homo sapiens, UniProt P25440); assay: Inhibition of tetra-acetylated histone H4 binding to Brd2 bromodomain 2 (TR-FRET); set-up: key: Active: Compounds with an IC50 value less than 30 μM were deemed to be active.; Not Active: Compounds with an IC50 value less than 30 μM were deemed to be active; conditions: tetra-acetylated histone H4 peptide, active = IC50 <30 μM
T2 construct: made in house; host or cells: E. coli BL21 (DE3)
T2 sequence (P25440 344-453 limits assumed): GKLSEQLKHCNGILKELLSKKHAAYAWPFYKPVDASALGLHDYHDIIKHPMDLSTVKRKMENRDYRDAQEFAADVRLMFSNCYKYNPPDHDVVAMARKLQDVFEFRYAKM
Summary of the method: as §1

c-myc = assay: Inhibition of c-myc expression in MV4-11 cells (mRNA, real-time PCR); type: cell-based; set-up: key: Active: Compounds with an IC50 value less than 30 μM were deemed to be active.; Not Active: Compounds with an IC50 value less than 30 μM were deemed to be active; conditions: Human AML MV4-11 cells, 3 h incubation
Summary of the method: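 Duplex RT-qPCR of c-myc against cyclophilin cDNA gave IC50 from a dose–response curve. Input was isolated mRNA from 2.5×10^4 MV4-11 cells after 3 h exposure at 37 °C to compound or 0.1% DMSO vehicle.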

[3] = test system: human AML MV-4-11 (CRL-9591) cells; assay: Inhibition of cell proliferation in MV4-11 cells; type: cell-based; set-up: key: Active: Compounds with an IC50 value less than 30 μM were deemed to be active.; Not Active: Compounds with an IC50 value less than 30 μM were deemed to be active; conditions: human AML MV-4-11 cells, 72 h; active = IC50 <30 μM
Summary of the method: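 IC50 values come from blank-corrected proliferation relative to DMSO controls, read as 490 nm absorbance 3–4 h after CellTiter Aqueous One addition. Before that, cells seeded at 5×10^4/well were exposed for 72 h (37° C, 5% CO2) to triplicate two-fold compound dilutions spanning 30–0.2 μM.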

hIL-6 mRNA = assay: Inhibition of hIL-6 mRNA transcription in U937 cells; type: cell-based, human; set-up: key: Active: Compounds with an IC50 value less than 30 μM were deemed to be active.; Not Active: Compounds with an IC50 value less than 30 μM were deemed to be active; conditions: LPS stimulation, active = IC50 <30 μM
Summary of the method: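 Readout is one-step real-time PCR of hIL-6 mRNA, normalized to an internal control and given as fold induction versus control. Cells: PMA (60 ng/mL, 3 days)-differentiated U937 macrophages, compound added 1 h before 1 ug/mL LPS, harvested after 3 h at 37° C.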

| FRET activity (IC50 <30 μM) BRD4(1) [1] | FRET activity (IC50 <30 μM) BRD2(2) [2] | c-myc activity (IC50 <30 μM) (c-myc) | Cell Proliferation activity (IC50 <30 μM) [3] | IL-6 activity (IC50 <30 μM) (hIL-6 mRNA) | melting point [°C] | SMILES |
| --- | --- | --- | --- | --- | --- | --- |
| Active | Active | Active | Active | Active | 197 to 200 | COc1cc(-c2nn(Cc3ccccc3)c(=O)c3ccccc23)ccc1O [Example 165, 2-Benzyl-4-(4-hydroxy-3-methoxyphenyl)-2H-phthalazin-1-one] |
| Active | Active | Not Active | Active | Active | 139 to 141 | Cc1noc(C)c1-c1cn(Cc2ccccc2)c(=O)c2ccccc12 [Example 167, 2-Benzyl-4-(3,5-dimethylisoxazol-4-yl)isoquinolin-1(2H)-one] |
| Not Active | Active | Not Active | Active | Not Active | 166 to 168 | COc1cc(-c2cn(Cc3ccccc3)c(=O)c3ccccc23)cc(OC)c1OC [Example 168, 2-Benzyl-4-(3,4,5-trimethoxyphenyl)isoquinolin-1(2H)-one] |
| Active | Active | Active | Active | Active | 165 to 167 | COc1cc(-c2cn(Cc3ccccc3)c(=O)c3ccccc23)ccc1O [Example 169, 2-Benzyl-4-(4-hydroxy-3-methoxyphenyl)isoquinolin-1(2H)-one] |
| Active | Active | Active | Active | Active | 206 to 207 | COc1cc(Nc2nn(Cc3ccccc3)c(=O)c3ccccc23)cc(OC)c1OC [Example 171, 2-Benzyl-4-(3,4,5-trimethoxyphenylamino)-2H-phthalazin-1-one] |
| Active | Active | Not Active | Active | Active | 162 to 164 | COc1cc(Nc2cn(Cc3ccccc3)c(=O)c3ccccc23)cc(OC)c1OC [Example 172, 2-Benzyl-4-((3,4,5-trimethoxyphenyl)amino)isoquinolin-1(2H)-one] |
